These results are taken from EP0410244A1, “Leukotriene antagonists” (BAYER AG, priority 1989, dated 1991).

The structures appear in SMILES notation.

This test concerns LTC₄ induced contraction of guinea-pig ileum. Briefly: Inhibition of leukotriene (LTC₄) induced contraction of guinea-pig ileum in vitro. It counts as cell-based, guinea-pig (Male Dunkin-Hartley strain). Conditions: Cavia porcellus. The procedure:
The leukotriene antagonist activity of the compounds of this invention is measured by the ability of the compounds to inhibit the leukotriene induced contraction of guinea-pig ileum in vitro as described below.
Five (5) centimeter longitudinal strips of guinea-pig ileum (Male Dunkin-Hartley strain) were bathed in modified Tyrodes buffer, containing 3µM indomethacin, in jacketed 10 mL tissue baths at 37°C and continuously aerated with 95% O₂/5% CO₂. The tissues were connected via cotton sutures to isotonic transducers. The tissues were equilibrated for 60 minutes and 100µM histamine was added to determine the maximal response of the tissues. This was removed by washout to give a steady baseline. Then the test compound, or vehicle control, was added cumulatively in half-log units until a bath concentration of 10µM was reached.
After a further equilibration period of 15 minutes, a concentration response curve to the reference agonist (LTD₄ or LTC₄) was generated. All determinations were carried out in triplicate and observations normalised against the maximal leukotriene response. Least-squares linear regression analysis was then used to calculate the concentration of leukotriene needed to elicit 50% of the maximum response and defined as the EC₅₀. […]
All compounds were measured against LTD₄ as the reference agonists except the compound of Example 65 which were measured against LTC₄.

Turning to `CCCCC/C=C\C\C=C/C=C/C=C/[C@@H](Sc1ccc(C(=O)O)cc1)[C@@](C)(O)CCCC(=O)O` [Example 65, 5S-Hydroxy-5-methyl-6R-(4-carboxyphenylthio)eicosa-7E,9E,11Z,14Z-tetraenoic Acid], the Kb is 398 nM.
